In patent publication US7578968B1, “Microbiological control in oil or gas field operations” (Albemarle Corporation, priority 2002, dated 2009):

Experiments:
Assay type in all cases: physicochemical
[1] = Comparative study of oxidation reduction potentials (ORP) and halogen residuals in cooling tower water
Method: The oxidants studied consisted of WELLGUARD 909 biocide, STABREX biocide (stabilized NaBr+NaOCl), bleach (NaOCl), and activated sodium bromide (NaOCl and NaBr).
Stock solutions of the biocides were prepared at 1000 ppm halogen residual concentration (as Cl2) in brown glass bottles using deionized water for dilution. Solution activities were confirmed using the DPD method and a Hach Co. (Loveland, Colo.) DR/2000 spectrophotometer.
Aliquots of the stock solutions above were added to 1000 mL of cooling tower water that had been pulled from a cooling tower. A 1000 mL beaker was charged with 1000 mL of cooling tower water and stirred while measuring ORP with a Brinkmann Metrohm 716 DMS Titrino automatic titrator. It took about 45 minutes for the sample to equilibrate—the ORP reading would gradually decline to a reading of about 300 mV. The sample was deemed to have equilibrated when the change in the ORP reading was less than or equal to 1 unit/minute. At this point, 0.5 g of stock solution (nominal halogen residual=0.5 ppm) was added and the mixture allowed to equilibrate once again. A sample was pulled to determine free and total halogen residuals and then 0.5 g additional stock solution was added and the process repeated. The following aliquots were added during the experiment: 0.5 g, 1.0 g, 2.0 g, 3.0 g, 4.0 g, 6.0 g, 8.0 g, 10.0 g.

[2] = Reversion of AMP to orthophosphate by oxidizing biocides; conditions: for Phosphate (orthophosphate from AMP): oxidant 10 ppm as Cl2, pH 9.1, 23° C.
Method: (§1) The oxidants studied consisted of WELLGUARD 909 biocide, bleach (NaOCl), and activated sodium bromide (NaOCl and NaBr). The WELLGUARD 909 biocide and bleach were added directly. Activated sodium bromide was prepared in situ by introducing 20 ppm bromide ion to the stock solution followed by addition of bleach. The phosphonates used in this work consisted of AMP (aminomethylene phosphonic acid), HEDP (hydroxyethylidene diphosphonic acid), and PBTC (phosphonobutanetricarboxylic acid). These materials were commercial samples (Mayoquest 1320, 1500, and 2100, respectively) obtained from Callaway Chemical Co. (Smyrna, Ga.).
(§2) Solutions consisting of 5 ppm scale inhibitor (as active phosphonate) in the presence of 10 ppm oxidant (as Cl2) were prepared as follows. To 900 mL deionized water were added appropriate stock solutions containing phosphonate, alkalinity (NaHCO3), and calcium hardness (CaCl2). The pH was adjusted to 9.1 with 5% aq. NaOH and diluted up to 1 L in a dark amber bottle. A dose of oxidant was added to achieve a residual of 10 ppm. The solutions were then periodically monitored for phosphonate reversion by determining the reversion to orthophosphate (Hach method 490). The oxidant residual was also periodically monitored using the DPD method (Hach method 80). All of this work was performed at room temperature (23° C.). The initial active phosphonate content was confirmed by conversion to orthophosphate via UV/persulfate oxidation followed by a conventional phosphate analysis (Hach method 501). A conversion factor was applied to the phosphate measurement to determine the initial amount of active phosphonate present as follows: AMP, 1.05; HEDP, 1.085; PBTC, 2.85.

[3] = Reversion of PBTC to orthophosphate by oxidizing biocides; conditions: for Phosphate (orthophosphate from PBTC): oxidant 10 ppm as Cl2, pH 9.1, 23° C.
Method: as §1, §2

[4] = Reversion of HEDP to orthophosphate by oxidizing biocides; conditions: for Phosphate (orthophosphate from HEDP): oxidant 10 ppm as Cl2, pH 9.1, 23° C.
Method: as §1, §2

[5] = nominal free/total ppm (as Cl2): STABREX 0.49/0.51, WELLGUARD 909 0.42/0.52, Bleach 0.50, Activated NaBr 0.48/0.52
[6] = nominal free/total ppm: STABREX 0.98/1.04, WELLGUARD 909 0.85/1.04, Bleach 1.00, Activated NaBr 0.97/1.05
[7] = nominal free/total ppm: STABREX 2.00/2.11, WELLGUARD 909 1.72/2.12, Bleach 2.04, Activated NaBr 1.97/2.14
[8] = nominal free/total ppm: STABREX 3.04/3.20, WELLGUARD 909 2.62/3.22, Bleach 3.09, Activated NaBr 2.99/3.25
[9] = nominal free/total ppm: STABREX 4.09/4.32, WELLGUARD 909 3.53/4.20, Bleach 4.17, Activated NaBr 4.03/4.39
[10] = nominal free/total ppm: STABREX 6.26/6.60, WELLGUARD 909 5.40/6.63, Bleach 6.37, Activated NaBr 6.17/6.71
[11] = nominal free/total ppm: STABREX 8.47/8.94, WELLGUARD 909 7.31/8.98, Bleach 8.63, Activated NaBr 8.35/9.08
[12] = nominal free/total ppm: STABREX 10.74/11.33, WELLGUARD 909 9.26/11.38, Bleach 10.93, Activated NaBr 10.58/11.51

[Na+].[O-]Cl [Bleach, NaOCl]
loss in biocide residual ([1]; conditions of Table 3): significant loss of residual during initial stages of biocide addition
Actual Residual, ppm Free [1, 5]: 0.13 ppm
Actual Residual, ppm Total [1, 5]: 0.34 ppm
ORP Reading, mV [1, 5]: 500 mV
Actual Residual, ppm Free [1, 6]: 0.29 ppm
Actual Residual, ppm Total [1, 6]: 0.48 ppm
ORP Reading, mV [1, 6]: 620 mV
Actual Residual, ppm Free [1, 7]: 1.12 ppm
Actual Residual, ppm Total [1, 7]: 1.29 ppm
ORP Reading, mV [1, 7]: 659 mV
Actual Residual, ppm Free [1, 8]: 1.88 ppm
Actual Residual, ppm Total [1, 8]: 2.08 ppm
ORP Reading, mV [1, 8]: 672 mV
Actual Residual, ppm Free [1, 9]: 2.98 ppm
Actual Residual, ppm Total [1, 9]: 3.43 ppm
ORP Reading, mV [1, 9]: 678 mV
Actual Residual, ppm Free [1, 10]: 5.24 ppm
Actual Residual, ppm Total [1, 10]: 5.68 ppm
ORP Reading, mV [1, 10]: 683 mV
Actual Residual, ppm Free [1, 11]: 7.68 ppm
Actual Residual, ppm Total [1, 11]: 8.16 ppm
ORP Reading, mV [1, 11]: 685 mV
Actual Residual, ppm Free [1, 12]: 10.08 ppm
Actual Residual, ppm Total [1, 12]: 10.78 ppm
ORP Reading, mV [1, 12]: 689 mV
Cl2 (oxidant residual) ([2]; AMP 5 ppm, initial oxidant 10 ppm as Cl2, pH 9.1, 23° C., 460 minutes): 9.4 ppm
Phosphate (orthophosphate from AMP) ([2]; AMP 5 ppm, 20 minutes): 0.35 ppm
Phosphate (orthophosphate from AMP) ([2]; AMP 5 ppm, 40 minutes): 0.7 ppm
Phosphate (orthophosphate from AMP) ([2]; AMP 5 ppm, 70 minutes): 0.53 ppm
Phosphate (orthophosphate from AMP) ([2]; AMP 5 ppm, 100 minutes): 0.75 ppm
Phosphate (orthophosphate from AMP) ([2]; AMP 5 ppm, 130 minutes): 0.8 ppm
Phosphate (orthophosphate from AMP) ([2]; AMP 5 ppm, 190 minutes): 0.77 ppm
Phosphate (orthophosphate from AMP) ([2]; AMP 5 ppm, 220 minutes): 0.59 ppm
Phosphate (orthophosphate from AMP) ([2]; AMP 5 ppm, 250 minutes): 0.64 ppm
Phosphate (orthophosphate from AMP) ([2]; AMP 5 ppm, 280 minutes): 0.83 ppm
Phosphate (orthophosphate from AMP) ([2]; AMP 5 ppm, 310 minutes): 0.82 ppm
Phosphate (orthophosphate from AMP) ([2]; AMP 5 ppm, 340 minutes): 0.8 ppm
Phosphate (orthophosphate from AMP) ([2]; AMP 5 ppm, 370 minutes): 0.81 ppm
Phosphate (orthophosphate from AMP) ([2]; AMP 5 ppm, 400 minutes): 0.79 ppm
Phosphate (orthophosphate from AMP) ([2]; AMP 5 ppm, 520 minutes): 0.97 ppm
Phosphate (orthophosphate from AMP) ([2]; AMP 5 ppm, 1360 minutes): 0.91 ppm
averaged amounts of phosphonate reversion ([2]; AMP, Table 4 averages): 18.7%
Phosphate, average ([2]; AMP, average 100-1360 minutes, maximum liberable phosphate: WELLGUARD 909 4.58, Activated NaBr 4.18, Bleach 4.22 ppm): 0.79 ppm
residual oxidant (as Cl2) ([3]; PBTC 5 ppm, initial oxidant 10 ppm as Cl2, pH 9.1, 23° C., 390 minutes (second 390 line)): 9.5 ppm
Phosphate (orthophosphate from PBTC) ([3]; PBTC 5 ppm, 30 minutes): 0 ppm
Phosphate (orthophosphate from PBTC) ([3]; PBTC 5 ppm, 60 minutes): 0 ppm
Phosphate (orthophosphate from PBTC) ([3]; PBTC 5 ppm, 90 minutes): 0 ppm
Phosphate (orthophosphate from PBTC) ([3]; PBTC 5 ppm, 120 minutes): 0 ppm
Phosphate (orthophosphate from PBTC) ([3]; PBTC 5 ppm, 150 minutes): 0 ppm
Phosphate (orthophosphate from PBTC) ([3]; PBTC 5 ppm, 180 minutes): 0 ppm
Phosphate (orthophosphate from PBTC) ([3]; PBTC 5 ppm, 210 minutes): 0.12 ppm
Phosphate (orthophosphate from PBTC) ([3]; PBTC 5 ppm, 270 minutes): 0.16 ppm
Phosphate (orthophosphate from PBTC) ([3]; PBTC 5 ppm, 330 minutes): 0.05 ppm
Phosphate (orthophosphate from PBTC) ([3]; PBTC 5 ppm, 360 minutes): 0.02 ppm
Phosphate (orthophosphate from PBTC) ([3]; PBTC 5 ppm, 390 minutes (first 390 line)): 0.02 ppm
Phosphate (orthophosphate from PBTC) ([3]; PBTC 5 ppm, 1360 minutes): 0.08 ppm
average amounts of phosphonate reversion ([3]; PBTC, after 3½ hours contact and beyond): 5.2%
Phosphate, average ([3]; PBTC, average 210-1360 minutes, maximum liberable phosphate: WELLGUARD 909 1.72, Activated NaBr 1.82, Bleach 1.44 ppm): 0.075 ppm
Cl2 (oxidant residual) ([4]; HEDP 5 ppm, initial oxidant 10 ppm as Cl2, pH 9.1, 23° C., 400 minutes): 10.6 ppm
Phosphate (orthophosphate from HEDP) ([4]; HEDP 5 ppm, 20 minutes): 0 ppm
Phosphate (orthophosphate from HEDP) ([4]; HEDP 5 ppm, 40 minutes): 0 ppm
Phosphate (orthophosphate from HEDP) ([4]; HEDP 5 ppm, 70 minutes): 0.2 ppm
Phosphate (orthophosphate from HEDP) ([4]; HEDP 5 ppm, 100 minutes): 0.25 ppm
Phosphate (orthophosphate from HEDP) ([4]; HEDP 5 ppm, 130 minutes): 0.31 ppm
Phosphate (orthophosphate from HEDP) ([4]; HEDP 5 ppm, 190 minutes): 0.61 ppm
Phosphate (orthophosphate from HEDP) ([4]; HEDP 5 ppm, 220 minutes): 0.65 ppm
Phosphate (orthophosphate from HEDP) ([4]; HEDP 5 ppm, 250 minutes): 0.39 ppm
Phosphate (orthophosphate from HEDP) ([4]; HEDP 5 ppm, 280 minutes): 0.41 ppm
Phosphate (orthophosphate from HEDP) ([4]; HEDP 5 ppm, 310 minutes): 0.58 ppm
Phosphate (orthophosphate from HEDP) ([4]; HEDP 5 ppm, 340 minutes): 0.65 ppm
Phosphate (orthophosphate from HEDP) ([4]; HEDP 5 ppm, 370 minutes): 0.84 ppm
Phosphate (orthophosphate from HEDP) ([4]; HEDP 5 ppm, 400 minutes): 0.65 ppm
Phosphate (orthophosphate from HEDP) ([4]; HEDP 5 ppm, 460 minutes): 0.95 ppm
Phosphate (orthophosphate from HEDP) ([4]; HEDP 5 ppm, 520 minutes, maximum liberable phosphate: WELLGUARD 909 4.20, Activated NaBr 4.40, Bleach 4.80 ppm): 0.94 ppm
relative amounts of reversion ([4]; HEDP, after 520 minutes): 19.6%
